Bridge positions count the residues as written; N and C are the ends. Ends that are not written are not given here.
Legend:
Type in all cases: in vivo, rat
[1] = Example 3: short-term oral treatment, body weight and food intake in DIO rats
Description: (§1) The study was performed in male Levin-DIO rats (diet-sensitive) and Levin-DR (diet-resistant) (TacLevin: CD (SD) DIO) (Taconic, Hudson, N.Y., U.S.A.) obtained at age 6-7 weeks. On arrival, DIO rats were given high fat diet (60 kcal %) (#D12495, Research Diets Inc., New Brunswick, N.J., USA) and kept on the same diet for 12 weeks prior to and during the experiment. DR rats were given low-fat diet and served as control group. Animals were pair-wise housed throughout the study. Rats were handled and pre-dosed once daily with MilliQ H2O for 2-3 weeks prior to experimental start to reduce stress-induced hyperglycemia. On the day prior to study start animals were given a single dose of vehicle. Baseline parameters were recorded in an overnight fasting (16 h) condition. Rats were randomized into treatment groups based on fasting body weight (BW) and fasting plasma glucose (FPG). Body weight, food and water intake were recorded prior to and at study end.
Animals treated with oral sCT or oral UGP284/UGP298/UGP302 received doses of 0.5 mg/kg, 1.0 mg/kg or 2.0 mg/kg combined with 150 mg/kg 5-CNAC—all dissolved in milliQ H2O.
(§2) Drug administration were given by per oral (p.o.) gavage b.i.d. during the study period and as single dose in the morning prior to start of OGTT.
Following the initial (1st) OGTT, animals were randomized into treatment groups based on FBG and BW. Animals were pre-treated 3 days (b.i.d.) prior to 2nd OGTT. The study was performed in an x-over design with each animal being its own control.
(§3) Statistical analysis was performed by one-way ANOVA followed by the Dunnett's post hoc test for multiple comparison. Student's t-test was performed to compare two paired group. All analysis was performed using GRAPHPAD PRISM software (GraphPad Prism, San Diego, Calif. U.S.A). Incremental area under curve (iAUC) during OGTT was calculated by the trapezoidal method. A value of P<0.05 was considered to be significant. All data are presented as mean±standard error of the mean (SEM).
FIG. 9A, FIG. 9B, FIG. 9C, FIG. 9D, FIG. 9E, and FIG. 9F show the effect of three different doses of oral sCT/UGP284/UGP298/UGP302 containing 0.5, 1 and 2 mg/kg compound were applied by gavage twice daily to 4 groups of rats for 3 days. * P<0.05, ** P<0.01 vs oral sCT. Results are presented as means±SEM.

[2] = Example 2: short-term oral treatment, body weight and food intake in DIO rats; conditions: for food intake: 0.5, 1 and 2 mg/kg p.o. b.i.d. for 3 days; for body weight: 0.5, 1 and 2 mg/kg p.o. b.i.d. for 3 days with 150 mg/kg 5-CNAC
Description: as §1, with “hyperglycaemia.” for “hyperglycemia.”
Animals treated with oral sCT or oral calcitonin mimetic 1 received doses of 0.5 mg/kg, 1.0 mg/kg or 2.0 mg/kg combined with 150 mg/kg 5-CNAC—all dissolved in milliQ H20.
as §2
Following the initial (1st) OGTT, animals are randomized into treatment groups based on FBG and BW. Animals will be pre-treated 3 days (b.i.d.) prior to 2nd OGTT. Dosing will be performed in the morning (7-8 am) and afternoon (3-4 pm).
The study was performed in an x-over design with each animal being its own control.
Three different doses of oral sCT/calcitonin mimetic 1 containing 0.5, 1 and 2 mg/kg compound were applied by gavage twice daily to 4 groups of rats for 3 days. * P<0.05, ** P<0.01 vs oral sCT.

[3] = Example 1: chronic oral treatment, body weight and food intake in DIO rats; conditions: for body weight: 4 weeks, vs oral vehicle (mimetic also vs oral sCT); for body weight / cumulative food intake: study end; for body weight / food intake: 1 mg/kg p.o. b.i.d. with 150 mg/kg 5-CNAC; for food intake: first week of treatment; for food intake / cumulative food intake: vs oral vehicle; for cumulative food intake: four weeks of treatment, 1 mg/kg p.o. b.i.d.
Description: as §1, with “for 16” for “for 12”, “stress-induced hyperglycaemia.” for “stress-induced hyperglycemia. On the day prior to study start animals were given a single dose of vehicle.”, “an” for “an overnight”, “fasting (6” for “fasting (16”, “recorded once weekly during the” for “recorded prior to and at”, “study period.” for “study end.”
Oral sCT or calcitonin mimetic 1 solution was prepared on the day of dosing by mixing a carrier with the given compound based on the following calculations:
Animals treated with oral sCT or oral calcitonin mimetic 1 received doses of 1.0 mg/kg combined with 150 mg/kg 5-CNAC—all dissolved in milliQ H20.
Drug administration by per oral (p.o.) gavage b.i.d. (7-8 am and 3-4 pm) during the study period and as single dose in the morning prior to start of OGTT.
as §3
One dose of oral sCT/calcitonin mimetic 1 containing 1 mg/kg compound was applied by gavage twice daily to four groups of rats for 4 weeks. An oral vehicle group served as dosing regimen control, respectively. * P<0.05, ** P<0.01, *** P<0.001 vs Vehicle. Results are presented as means±SEM.

[4] = Example 1: fasting glycaemia in DIO rats; conditions: following 2 and 4 weeks of treatment, 1 mg/kg p.o. b.i.d.
Description: as §1, with “for 16” for “for 12”, “stress-induced hyperglycaemia.” for “stress-induced hyperglycemia. On the day prior to study start animals were given a single dose of vehicle.”, “an” for “an overnight”, “fasting (6” for “fasting (16”, “recorded once weekly during the” for “recorded prior to and at”, “study period.” for “study end.”
Blood sampling and glycemia were measured by heated tail venous puncture.
Whole blood glucose levels were determined with an ACCU-CHEK® Avia blood glucose meter (Roche Diagnostics, Rotkreuz, Switzerland). Blood (approx 300 ul) is collected in 1 ml MiniCollect K3EDTA plasma-tube (Greiner-Bio-One GmbH, Frickenhausen, Germany), inverted, and stored on ice. Tubes are centrifuged 3000×g (5000 rpm in table centrifuge) for 10 min at 4° C. and plasma obtained. Plasma samples are stored at −20° C. until analysis. […]

| Substance | reduction in body weight vs oral sCT at same dose ([1]; 0.5 mg/kg p.o. b.i.d. for 3 days, DIO rats) | energy balance vs equivalent doses of oral sCT ([1]; 0.5, 1 and 2 mg/kg doses p.o., male DIO rats) | reduction in body weight vs oral sCT at same dose ([2]; 0.5 mg/kg p.o. b.i.d. for 3 days) | food intake [2] | body weight [2] | body weight [3] | food intake [3] | cumulative food intake [3] | fasting glycaemia [4] | body weight ([1]; 0.5, 1 and 2 mg/kg p.o. b.i.d. for 3 days with 150 mg/kg 5-CNAC, DIO rats) | food intake ([1]; 0.5, 1 and 2 mg/kg p.o. b.i.d. for 3 days, DIO rats) |
| --- | --- | --- | --- | --- | --- | --- | --- | --- | --- | --- | --- |
| Ac-CSNLSTCVLGKLSQELHKLQTYPRTDVGANAP-NH2 (Ac-CSNLSTCVLGKLSQELHKLQTYPRTDVGANAP-NH2; ends and bridges not checked) [UGP302, calcitonin mimetic] | significantly difference to oral sCT 0.5 mg/kg | superiority to equivalent doses of oral sCT | significantly difference to oral sCT 0.5 mg/kg | trended dose-dependently reduced compared to oral sCT | dose-dependent superiority to oral sCT | more pronounced significant reduction in body weight | significantly reduced food intake | significantly reduced | trend towards superiority in fasting glycaemia |  |  |
| salmon calcitonin (CSNLSTCVLGKLSQELHKLQTYPRTNTGSGTP-NH2; disulfide 1-7; ends not checked) [sCT, reference compound] |  |  |  | dose-dependently decreased | dose-dependently decreased | significantly reduced body weight from baseline | significantly reduced food intake | lack of difference | not significantly different from oral vehicle | dose-dependently decreased | dose-dependently decreased |
